Results reported in patent US8362050B2, “Compounds and methods for modulating G protein-coupled receptors” (IRM LLC, priority 2008, dated 2013).
Where two headings read alike, the source gives them in different places.

Target: T1, Human GPR120 (Homo sapiens, UniProt Q5NUL3)
T1 construct: Ga16 (promiscuous G protein) fusion partner; expressed in transfected cells
T1 sequence (Q5NUL3 with tags, fused parts or gaps): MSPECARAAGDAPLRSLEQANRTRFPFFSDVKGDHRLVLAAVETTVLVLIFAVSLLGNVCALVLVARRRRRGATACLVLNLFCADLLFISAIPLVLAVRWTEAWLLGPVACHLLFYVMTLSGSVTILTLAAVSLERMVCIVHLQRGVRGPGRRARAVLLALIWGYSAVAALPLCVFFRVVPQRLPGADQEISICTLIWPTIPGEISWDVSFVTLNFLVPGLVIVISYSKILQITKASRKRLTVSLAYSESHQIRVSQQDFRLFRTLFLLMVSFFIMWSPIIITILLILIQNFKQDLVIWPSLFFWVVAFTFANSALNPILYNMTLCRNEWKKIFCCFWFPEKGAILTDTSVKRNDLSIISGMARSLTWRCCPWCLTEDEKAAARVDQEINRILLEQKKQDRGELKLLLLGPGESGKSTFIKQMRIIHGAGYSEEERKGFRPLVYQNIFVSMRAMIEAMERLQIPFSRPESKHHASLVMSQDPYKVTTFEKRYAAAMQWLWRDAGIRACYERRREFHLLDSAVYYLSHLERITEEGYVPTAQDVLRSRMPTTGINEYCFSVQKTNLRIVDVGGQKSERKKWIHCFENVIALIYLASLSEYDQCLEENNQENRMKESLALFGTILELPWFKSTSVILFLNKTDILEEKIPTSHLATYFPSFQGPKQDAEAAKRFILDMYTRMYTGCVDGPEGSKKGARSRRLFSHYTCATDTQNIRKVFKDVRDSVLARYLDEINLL
Experiment: FLIPR assay: agonist-induced calcium mobilization in HEK293-GPR120-Ga16 cells
Assay type: cell-based
Settings: for EC50: GPR120 activation, calcium mobilization, HEK293-GPR120-Ga16 cells; for Emax: % enhancement of the test compound relative to a known compound, read-out: % Efficiency
Procedure: Human GPR120 stable cell-line was generated in HEK293 cells. GPR120 (Accession number BC101175) is fused to a promiscuous G protein, Ga16. The expression plasmid is transfected into HEK293 cells using Fugene6 following manufacturer's instruction. Stable cell-lines are generated following drug selection.
FLIPR (Fluorimetric Imaging Plate Reader, Molecular Devices) assays are performed to measure agonist-induced calcium mobilization in the GPR120-expressing cells. One day before the FLIPR assay, HEK293-GPR120-Ga16 cells are seeded into poly-D-lysine coated black-wall-clear bottom 384 well plates (Falcon) at 25,000 cells per well in 40 μl DMEM supplemented with 1% of FBS. The cells are incubated overnight at 37° C. in a humidified incubator. The medium is aspirated on the day of the FLIPR assay. The cells are incubated with 50 μl/well of the assay buffer (HBSS, 20 mM HEPES, 2.5 mM probenecid, pH7.4) containing Fluo-4 NM dye (Invitrogen cat# F36205) at 37° C. for 45 minutes, and then equilibrated at room temperature for 30 minutes. Compounds are dissolved in DMSO and diluted to desired concentrations with assay buffer. Fluorescent output is measured immediately following compound addition (12.5 μl/well) on the FLIPR machine.
An EC50 value was calculated using the change of fluorescent intensity from the reaction initiation. […] In some examples, compounds provided herein have EC50 values from 0.1 μM to 5 μM, while in other examples from 0.5 μM to 5 μM.
The EC50 value in those experiments is given as that concentration of the test compound in question that provoke a response halfway between the baseline and maximum responses. In certain examples compounds of Formula (I) have EC50 values from 0.001 μM to 5 μM. In other examples, compounds of Formula (I) have EC50 values from 0.001 μM to 4 μM. In other examples, compounds of Formula (I) have EC50 values from 0.001 μM to 3 μM. In other examples, compounds of Formula (I) have EC50 values from 0.001 μM to 2 μM. In other examples, compounds of Formula (I) have EC50 values from 0.001 μM to 1 μM. In other examples, compounds of Formula (I) have EC50 values from 0.001 μM to 0.5 μM. […] In other examples, compounds of Formula (I) have EC50 values from 0.001 μM to 0.1 μM.
The % efficiency in those experiments is given as that % enhancement of the test compound in question relative to a known compound. In certain examples compounds of Formula (I) have a % efficiency values from 50% to 150%. In other examples, compounds of Formula (I) have a % efficiency values from 55% to 150%. In other examples, compounds of Formula (I) have a % efficiency values from 60% to 150%. In other examples, compounds of Formula (I) have a % efficiency values from 65% to 150%. In other examples, compounds of Formula (I) have a % efficiency values from 70% to 150%. In other examples, compounds of Formula (I) have a % efficiency values from 75% to 150%. In other examples, compounds of Formula (I) have a % efficiency values from 80% to 150%. In other examples, compounds of Formula (I) have a % efficiency values from 85% to 150%. In other examples, compounds of Formula (I) have a % efficiency values from 90% to 150%. In other examples, compounds of Formula (I) have a % efficiency values from 95% to 150%. In other examples, compounds of Formula (I) have a % efficiency values from 100% to 150%.

| SMILES | EC50 (read-out: EC50 Range) [µM] | Emax [%] | EC50 (read-out: EC50) [µM] |
| --- | --- | --- | --- |
| CCn1c(-c2cccc(OCc3ccccc3)c2)cs/c1=N\c1ccc(C(=O)O)cc1 [Compound 26, (Z)-4-(4-(3-(benzyloxy)phenyl)-3-ethylthiazol-2(3H)-ylideneamino)benzoic acid] | 0.5 to 1 | – | – |
| CCn1c(-c2cccc(OCc3ccccn3)c2)cs/c1=N\c1ccc(C(=O)O)cc1 [Compound 27, (Z)-4-(3-ethyl-4-(3-(pyridin-2-ylmethoxy)phenyl)thiazol-2(3H)-ylideneamino)benzoic acid] | 0.5 to 1 | 65.9 | 0.7 |
| CCn1c(-c2ccccc2OC)cs/c1=N\c1ccc(S(=O)(=O)O)cc1 [Compound 28, (Z)-4-(3-ethyl-4-(2-methoxyphenyl)thiazol-2(3H)-ylideneamino)benzenesulfonic acid] | 0.1 to 0.25 | – | – |
| CCn1c(-c2cccc(OC)c2)cs/c1=N\c1ccc(S(=O)(=O)O)cc1 [Compound 29, (Z)-4-(3-ethyl-4-(3-methoxyphenyl)thiazol-2(3H)-ylideneamino)benzenesulfonic acid] | 0.25 to 0.5 | – | – |
| CCn1c(-c2ccccc2Cl)cs/c1=N\c1ccc(S(=O)(=O)O)cc1 [Compound 30, (Z)-4-(4-(2-chlorophenyl)-3-ethylthiazol-2(3H)-ylideneamino)benzenesulfonic acid] | 0.1 to 0.25 | – | – |
| CCn1c(-c2cccc(Cl)c2)cs/c1=N\c1ccc(S(=O)(=O)O)cc1 [Compound 31, (Z)-4-(4-(3-chlorophenyl)-3-ethylthiazol-2(3H)-ylideneamino)benzenesulfonic acid] | 0.001 to 0.1 | 114 | 0.078 |
| CCn1c(-c2ccccc2OC)cs/c1=N\c1ccc(C(=O)O)cc1 [Compound 32, (Z)-4-(3-ethyl-4-(2-methoxyphenyl)thiazol-2(3H)-ylideneamino)benzoic acid] | 0.5 to 1 | – | – |
| CCn1c(-c2cccc(OC)c2)cs/c1=N\c1ccc(C(=O)O)cc1 [Compound 33, (Z)-4-(3-ethyl-4-(3-methoxyphenyl)thiazol-2(3H)-ylideneamino)benzoic acid] | 0.5 to 1 | – | – |
| CCn1c(-c2ccccc2Cl)cs/c1=N\c1ccc(C(=O)O)cc1 [Compound 34, (Z)-4-(4-(2-chlorophenyl)-3-ethylthiazol-2(3H)-ylideneamino)benzoic acid] | 0.1 to 0.25 | – | – |
| CCn1c(-c2cccc(Cl)c2)cs/c1=N\c1ccc(C(=O)O)cc1 [Compound 35, (Z)-4-(4-(3-chlorophenyl)-3-ethylthiazol-2(3H)-ylideneamino)benzoic acid] | 0.1 to 0.25 | – | – |
| CCn1c(-c2ccccc2)cs/c1=N\c1ccc(C(=O)O)cc1 [Compound 36, (Z)-4-(3-ethyl-4-phenylthiazol-2(3H)-ylideneamino)benzoic acid] | 0.25 to 0.5 | – | – |
| CCn1c(-c2ccccc2)cs/c1=N\c1ccc(S(=O)(=O)O)cc1 [Compound 37, (Z)-4-(3-ethyl-4-phenylthiazol-2(3H)-ylideneamino)benzenesulfonic acid] | 0.1 to 0.25 | – | – |
| CCn1c(-c2c(Cl)cccc2Cl)cs/c1=N\c1ccc(C(=O)O)cc1 [Compound 38, (Z)-4-(4-(2,6-dichlorophenyl)-3-ethylthiazol-2(3H)-ylideneamino)benzoic acid] | 0.1 to 0.25 | – | – |
| CCn1c(-c2cccc(Cl)c2Cl)cs/c1=N\c1ccc(C(=O)O)cc1 [Compound 39, (Z)-4-(4-(2,3-dichlorophenyl)-3-ethylthiazol-2(3H)-ylideneamino)benzoic acid] | 0.1 to 0.25 | – | – |
| CCn1c(-c2cccc3ccccc23)cs/c1=N\c1ccc(C(=O)O)cc1 [Compound 40, (Z)-4-(3-ethyl-4-(naphthalen-1-yl)thiazol-2(3H)-ylideneamino)benzoic acid] | 0.25 to 0.5 | 107 | 0.354 |
| CCn1c(-c2ccc3ccccc3c2)cs/c1=N\c1ccc(C(=O)O)cc1 [Compound 41, (Z)-4-(3-ethyl-4-(naphthalen-2-yl)thiazol-2(3H)-ylideneamino)benzoic acid] | 0.25 to 0.5 | – | – |
| CCn1c(-c2ccccc2Br)cs/c1=N\c1ccc(C(=O)O)cc1 [Compound 42, (Z)-4-(4-(2-bromophenyl)-3-ethylthiazol-2(3H)-ylideneamino)benzoic acid] | 0.001 to 0.1 | – | – |
| CCn1c(-c2ccccc2N)cs/c1=N\c1ccc(C(=O)O)cc1 [Compound 43, (Z)-4-(4-(2-aminophenyl)-3-ethylthiazol-2(3H)-ylideneamino)benzoic acid] | 0.001 to 0.1 | – | – |
| CCn1c(-c2ccccc2[N+](=O)[O-])cs/c1=N\c1ccc(C(=O)O)cc1 [Compound 44, (Z)-4-(3-ethyl-4-(2-nitrophenyl)thiazol-2(3H)-ylideneamino)benzoic acid] | 0.5 to 1 | 75.2 | 0.604 |
| CCn1c(-c2ccccc2NC)cs/c1=N\c1ccc(C(=O)O)cc1 [Compound 45, (Z)-4-(3-ethyl-4-(2-(methylamino)phenyl)thiazol-2(3H)-ylideneamino)benzoic acid] | 0.5 to 1 | 87.9 | 0.526 |
| CCn1c(-c2ccccc2N(C)C)cs/c1=N\c1ccc(C(=O)O)cc1 [Compound 46, (Z)-4-(4-(2-(dimethylamino)phenyl)-3-ethylthiazol-2(3H)-ylideneamino)benzoic acid] | 0.5 to 1 | – | – |
| CCn1c(-c2cccc(Br)c2)cs/c1=N\c1ccc(C(=O)O)cc1 [Compound 47, (Z)-4-(4-(3-bromophenyl)-3-ethylthiazol-2(3H)-ylideneamino)benzoic acid] | 0.1 to 0.25 | – | – |
| CCn1c(-c2ccccc2O)cs/c1=N\c1ccc(C(=O)O)cc1 [Compound 48, (Z)-4-(3-ethyl-4-(2-hydroxyphenyl)thiazol-2(3H)-ylideneamino)benzoic acid] | 0.1 to 0.25 | – | – |
| CCn1c(-c2cccc(C#N)c2)cs/c1=N\c1ccc(C(=O)O)cc1 [Compound 49, (Z)-4-(4-(3-cyanophenyl)-3-ethylthiazol-2(3H)-ylideneamino)benzoic acid] | 0.25 to 0.5 | – | – |
| CCn1c(-c2cc(Br)ccc2O)cs/c1=N\c1ccc(C(=O)O)cc1 [Compound 50, (Z)-4-(4-(5-bromo-2-hydroxyphenyl)-3-ethylthiazol-2(3H)-ylideneamino)benzoic acid] | 0.1 to 0.25 | – | – |
| COc1ccc(-c2noc(-c3cccc(C(=O)O)c3)n2)cc1 [Compound 51, 3-[3-(4-Methoxyphenyl)-1,2,4-oxadiazol-5-yl]benzoic acid] | 0.1 to 0.25 | 55 | 0.184 |
| COc1ccc(-c2noc(-c3ccc(C(=O)O)cc3)n2)cc1 [Compound 52, 4-(3-(4-methoxyphenyl)-1,2,4-oxadiazol-5-yl)benzoic acid] | 1 to 5 | – | – |
